This note sets out measurements from PubChem BioAssay (NCI).

Where “and” joins values, the source holds several entries; their conditions need not be identical. Identical values can stand only once.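 Where inhibition never reached the appropriate level, the endpoint shown equals the highest concentration tested. Otherwise, values were interpolated linearly from a five-concentration, 48-hour dose response in 96-well plates. The concentration for 50% growth inhibition is given as GI50. Definition used: TGI = concentration required for complete inhibition of growth.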 Some results are limits rather than exact numbers.

For the test, the system named is MDA-MB-468 breast. The experiment in a line: NCI-60 cell line screen, 48 h.
`O=c1c2cc(-c3ccc(F)cc3F)ccc2n(Nc2ccccc2)c(=O)n1-c1cccc(C(F)(F)F)c1`: the GI50 was 1.99 µM and the TGI was determined as 5.57 µM.

As to `Clc1ccc(C2CC(c3cccc(Nc4ccncc4)c3)=NN2c2ccc(Cl)cc2)cc1` (stereo not drawn), the GI50 is 1.4 µM and the TGI worked out at 2.92 µM.

Consider `CNC(=O)c1cc(Oc2cccc3nc(NC(=O)Nc4cc(C(F)(F)F)cc(C(F)(F)F)c4)ccc23)ccn1`, for which the GI50 is 3.4 µM and the TGI is 26.6 µM.

On to `CS(=O)(=O)Nc1cc(-c2ccc3ncnc(Nc4ccc(F)c(Cl)c4)c3c2)cnc1Cl`, for which the GI50 is 0.236 µM and 0.21 µM; the TGI is 1.29 µM and 1.02 µM.

Take `C[C@]12CC[C@@H]3c4ccc(O)cc4CC[C@H]3[C@@H]1CC[C@@H]2NS(=O)(=O)c1ccc(Br)cc1`: the GI50 was 3.57 µM and the TGI came out at 11.2 µM.

Regarding `O=C(NCCc1ccccc1)Nc1ccc2cc3ccc(NC(=O)NCCc4ccccc4)cc3nc2c1`, the GI50 is 0.81 µM and the TGI was 2.27 µM.

In the case of `COc1cc(Cl)cc(-c2nn(-c3cccc(NC(=O)Nc4cccc(C(F)(F)F)c4)c3)cc2-c2ccncc2)c1`, the GI50 is 1.05 µM and the TGI came to 4.99 µM.

Turning to `O=C1CC[C@H](N2Cc3c(OCc4ccc(CN5CCOCC5)cc4)cccc3C2=O)C(=O)N1`, the GI50 is over 100 µM and the TGI is over 100 µM.

With `Cc1nc(-c2cc3ccccc3oc2=O)ccc1C(=O)/C=C/c1ccccn1`, the GI50 was over 100 µM and the TGI was over 100 µM.

As for `CCCOc1cc2ccccc2cc1C(=O)Nc1nc(NC)c2c(ccc3nccc32)[nH]1`, the GI50 was 0.275 µM and the TGI is 1.01 µM.

On to `Cc1ccc(C(=O)c2sc3nc4c(cc3c2N)CCCC4)c(C)c1`, for which the GI50 was 0.21 µM and the TGI stood at 8.42 µM.

`O=C(O)c1cc2ccccc2c2c3c(ccc12)OCO3`: the GI50 was 153 µM and the TGI was 460 µM.

As to `Nc1ncnc2c1ncn2C1OC(COS(N)(=O)=O)C(O)C1O` (stereo not drawn), the GI50 was 0.0021 µM and 0.0201 µM; the TGI was 0.00465 µM and 0.0422 µM.

With `Cc1cc(C(=O)/C=C/c2ccc[nH]2)ccc1-n1ccc(C(F)(F)F)n1`, the GI50 was 3.76 µM and the TGI came out at 34.9 µM.

With `C/C=C/C/C=C/[C@H](C)C[C@H](O)[C@@H]1C[C@@H]2O[C@H]2/C=C/[C@@H]2OC(C)(C)O[C@H]2/C=C/C[C@H](C)CC(=O)O1`, the GI50 was 17.3 µM and the TGI was over 100 µM.

Consider `O=C(CSCC(=O)N/N=C/c1ccccc1O)N/N=C\c1ccccc1O`, for which the GI50 is 1.26 µM and the TGI turned out to be 5.85 µM.

On to `CC[C@@]1(OC(=O)CN(C)C)C(=O)OCc2c1cc1n(c2=O)Cc2cc3c(N)cccc3nc2-1`, for which the GI50 was 0.0128 µM and the TGI stood at 0.035 µM.

Regarding `O=C(NCCN1CCCC1)c1ccc(-c2nc3ccc4[nH]ncc4c3c3c2CCCC3)cc1`, the GI50 is 0.356 µM and the TGI is 1.38 µM.

Turning to `Cc1ccc(S(=O)(=O)OCC#CCOS(=O)(=O)c2ccc(C)cc2)cc1`, the GI50 was 1.85 µM and the TGI stood at 3.88 µM.

`O=C1Nc2cc(-c3cccc(O)c3)ccc2/C1=C/c1ccc[nH]1`: the GI50 is 0.245 µM and the TGI was found to be 0.805 µM.

In the case of `Nc1c(C(=O)Nc2ccccn2)sc2nc3c(cc12)C(O)CCC3` (stereo not drawn), the GI50 is 1.08 µM and the TGI is over 50 µM.

With `N#Cc1cnc2cc(OC[C@@H](O)CO)c(NC(=O)C3CCCC3)cc2c1Nc1ccc(OCc2cccc(F)c2)c(Cl)c1`, the GI50 was 0.611 µM and the TGI turned out to be 2.5 µM.

As for `COCCOCCOCc1n(Cc2ccc3ccccc3c2)c2ccccc2[n+]1Cc1ccc2ccccc2c1`, the GI50 was 0.11 µM and the TGI came out at 0.659 µM.

For the compound `Cc1cc(-c2nnc(/C=C/c3ccc4c(c3)OCO4)o2)n[nH]1`, the GI50 was 10.9 µM and the TGI is 32.7 µM.

Take `CCOC(=O)Nc1nc2ccccc2[nH]1`: the GI50 is 2.75 µM and 2.07 µM; the TGI is > 89.9 µM and 9.09 µM.

As for `COc1ccc(C(C)c2cc(OC)c(OC)c(OC)c2)cc1` (stereo not drawn), the GI50 is 0.0945 µM and the TGI is over 50 µM.

As for `CO[C@@H]1CCN(c2nccc(Nc3cc4c(C(C)C)ccc(N5CC(CS(C)(=O)=O)[C@H]5C)c4cn3)n2)C[C@@H]1F` (stereo partly drawn), the GI50 is 0.544 µM and the TGI amounted to 4.11 µM.

As for `O=C1/C=C/[C@@H](O)[C@@H]2C[C@@H](O)C[C@H]2/C=C/CCC[C@H](CCc2ccc3ncccc3c2)O1`, the GI50 is 0.0656 µM and the TGI is 0.495 µM.

On to `O=[N+]([O-])c1cccc(-c2nc(-c3ccc(Cl)cc3Cl)cn2-c2ccccc2)c1`, for which the GI50 is 1.57 µM and the TGI was found to be 6.75 µM.

Consider `COc1cccc(-c2nn(-c3ccccc3)cc2-c2ccnc(NCCCNC(=O)c3cccc(C(F)(F)F)c3)c2)c1`, for which the GI50 was 1.95 µM and the TGI turned out to be 7.37 µM.

For the compound `N#Cc1ccc(-c2c(-c3ncn[nH]3)sc(N3CCOCC3)c2C#N)c(F)c1`, the GI50 is 0.242 µM and the TGI was 1.55 µM.

With `COc1cccc(/C=C/c2nc3c(cnn3-c3ccccc3)c(=O)[nH]2)c1`, the GI50 was 0.67 µM and the TGI is over 100 µM.

`Cc1ccc(Nc2cc(Cl)c([N+](=O)[O-])cc2[N+](=O)[O-])cc1`: the GI50 was 1.8 µM and the TGI amounted to 3.58 µM.

`CCCCCCCCCCCCCCCCCCNCc1ccc(Cl)cc1`: the GI50 was 7.87 µM and the TGI is 24.8 µM.

In the case of `O=C(Nc1cccc(-n2cc(-c3ccncc3)c(-c3ccc(O)c(Cl)c3)n2)c1)c1ccc2c(c1)OCCO2`, the GI50 was 6.88 µM and the TGI is over 100 µM.

For `COc1ccc(/C(C)=N/NC(=O)CSc2nc3ccccc3c(=O)n2CCc2ccc(S(N)(=O)=O)cc2)cc1`, the GI50 was 2.3 µM and the TGI amounted to 4.85 µM.

`O=S(=O)(NCCNc1nccc(-c2c(-c3ccc(F)c(O)c3)nc3sccn23)n1)c1ccc(Cl)cc1`: the GI50 is 2.17 µM and the TGI was over 50 µM.

On to `CN1CCN(c2ccc(OC(F)(F)F)c(Nc3ncc4c(n3)-c3c(c(C(N)=O)nn3CCO)CC4)c2)CC1`, for which the GI50 was < 0.01 µM and 0.032 µM; the TGI was 11.5 µM.

Turning to `NCCCOc1cc2ccccc2cc1C(=O)Nc1ccc(Cl)cc1OC(=O)c1cc2ccccc2cc1OCCCN`, the GI50 is 0.221 µM and the TGI is 0.573 µM.

With `CCOC(=O)C(Cc1c[nH]c2cc(N(CCO)CCO)ccc12)(NC(C)=O)C(=O)OCC`, the GI50 is 793 µM and the TGI was over 1000 µM.

On to `NCCCCCNc1noc(Cc2c[nH]c3cc(Br)ccc23)n1`, for which the GI50 was 2.13 µM and the TGI worked out at 5.15 µM.

Take `CC(C)(C)c1cc(C(=O)Nc2ccc(C(=O)NCCN)cc2)cc(C(C)(C)C)c1`: the GI50 is 1.82 µM and the TGI is 3.6 µM.

On to `CN(C)C(=O)OCc1nc2c(N3CCOCC3)nc(-c3ccccc3)nc2n1C`, for which the GI50 is 0.573 µM and the TGI amounted to 1.82 µM.

Regarding `Cc1ccc(C(=O)NCCCOc2ccc(N3C(N)=NC(N)=NC3(C)C)cc2Cl)cc1S(=O)(=O)F`, the GI50 was over 100 µM and the TGI is over 100 µM.
